Data published in PubChem BioAssay (NCI).
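Values below derive from 48-hour exposures of cells grown in 96-well plates, with endpoints linearly interpolated between the two concentrations bracketing the appropriate inhibition level. The concentration for full growth arrest is given as TGI.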

Key:
Assay in all cases: NCI tumour cell line growth inhibition, 48 h
DLD-1 colon = test system: DLD-1 colon
HOP-18 NSCLC = test system: HOP-18 NSCLC
LXFL 529 NSCLC = test system: LXFL 529 NSCLC
DMS 273 small cell lung = test system: DMS 273 small cell lung
SNB-78 CNS = test system: SNB-78 CNS
KM20L2 colon = test system: KM20L2 colon
XF 498 CNS = test system: XF 498 CNS
P388/ADR leukemia = test system: P388/ADR leukemia
P388 leukemia = test system: P388 leukemia
SN12K1 renal = test system: SN12K1 renal

SMILES | TGI (DLD-1 colon) | TGI (HOP-18 NSCLC) | TGI (LXFL 529 NSCLC) | TGI (DMS 273 small cell lung) | TGI (SNB-78 CNS) | TGI (KM20L2 colon) | TGI (XF 498 CNS) | TGI (P388/ADR leukemia) | TGI (P388 leukemia) | TGI (SN12K1 renal)
Cn1ccnc1CCc1ccc(Cl)c(Cl)c1 | > 100 µM | > 100 µM | > 100 µM | > 100 µM | > 100 µM | > 100 µM | – | – | – | –
O=[N+]([O-])c1ccc([N+]2=NC(c3ccccc3)=NN(c3ccccc3)C2)cc1 | > 100 µM | > 100 µM | > 100 µM | > 100 µM | > 100 µM | > 100 µM | 58.9 µM | – | – | –
C[n+]1c2ccccc2c(/C=N\NS(=O)(=O)c2ccc(Cl)cc2)c2ccccc21 | > 100 µM | – | – | > 100 µM | > 100 µM | > 100 µM | > 100 µM | – | – | –
CCN(CC)CCOC(=O)Cc1cccc2c(=O)cc(-c3ccccc3)oc12 | > 195 µM | > 126 µM | – | > 625 µM | > 175 µM | > 214 µM | 82.6 µM | > 625 µM | > 625 µM | 127 µM
COc1cccc(-c2nccc3c(OCc4ccccc4)c(OC)c(OC)cc23)c1 | > 100 µM | – | > 100 µM | > 100 µM | > 100 µM | > 100 µM | > 100 µM | – | – | –
